Test results published in patent US10300026B2, “Use of dihydroxyacetone in preparation of anti-cancer medicaments” (priority 2015, dated 2019).

Tests used:
SH-SY5Y = test: CellTiter-Glo cell viability, SH-SY5Y (human neuroblastoma cell); format: cell-based; details: Homo sapiens, 72 h, read-out: IC50 calculated based on the concentration of dihydroxyacetone
Protocol: (§1) 15 g of the commercially available 1,3-dihydroxyacetone in the solid powder form was added into 100 mL of 5% glucose (infusion bottle), then filled into 100 bottles.
(§2) After digesting the cells and counting (counting suspended cells directly), the cells were diluted to 1.25×10^5 cells/ml, inoculated into a 384-well plate (5000 cells/well) with 40 μl per well, centrifuged at 1500 rpm for 1 min, placed into the incubator and incubated overnight.
(§3) The medicaments were diluted in gradient with a 5% glucose solution to 5×, respectively. Each well was dosed with 10 μl medicament, with 4 wells (n=4) for each concentration. The cell viability was measured with Luminescence Cell Viability Assay kit after incubating for 72 hours in an incubator.
(§4) CellTiter-Glo reagent was added into each well, the volume of which is the same as that of medium. It was shaked on a shaker for 5 min, centrifuged at 1500 rpm for 1 min, and incubated in the dark at room temperature for 15 min. Then the chemiluminescence was detected with BMG PHERAstar.
(§5) The cell viability was calculated by using the following formula: Cell viability (Viability %)=100%×(LUMsample to be measured−LUMblank)/(LUMsolvent control−LUMblank)
(§6) The curve of Log[concentration] versus cell viability was fitted using Prism 6 to calculate IC50 of sample for each cell line.

WIL2-S = test: CellTiter-Glo cell viability, WIL2-S (human B lymphocyte); format: cell-based; details: Homo sapiens, Lymphocyte, 72 h, read-out: IC50 calculated based on the concentration of dihydroxyacetone
Protocol: as §1, §2, §3, §4, §5, §6

BEL-7402 = test: CellTiter-Glo cell viability, BEL-7402 (human hepatoma cell line); format: cell-based; details: Homo sapiens, Bel-7402, 72 h, read-out: IC50 calculated based on the concentration of dihydroxyacetone
Protocol: as §1, §2, §3, §4, §5, §6

RPMI8226 = test: CellTiter-Glo cell viability, RPMI8226 (multiple myeloma); format: cell-based; details: Homo sapiens, RPMI-8226, 72 h, read-out: IC50 calculated based on the concentration of dihydroxyacetone
Protocol: as §1, §2, §3, §4, §5, §6

T24 = test: CellTiter-Glo cell viability, T24 (human bladder transitional cell carcinoma cell); format: cell-based; details: Homo sapiens, T-24, 72 h, read-out: IC50 calculated based on the concentration of dihydroxyacetone
Protocol: as §1, §2, §3, §4, §5, §6

A549 = test: CellTiter-Glo cell viability, A549 (human non-small cell lung cancer cell); format: cell-based; details: Homo sapiens, A549, 72 h, read-out: IC50 calculated based on the concentration of dihydroxyacetone
Protocol: as §1, §2, §3, §4, §5, §6

TT = test: CellTiter-Glo cell viability, TT (human thyroid cancer cell); format: cell-based; details: Homo sapiens, 72 hours, n=4, read-out: IC50 calculated based on the concentration of dihydroxyacetone
Protocol: as §1, §2, §3, §4, §5, §6

A375 = test: CellTiter-Glo cell viability, A375 (human malignant melanoma cell); format: cell-based; details: Homo sapiens, A-375, 72 h, read-out: IC50 calculated based on the concentration of dihydroxyacetone
Protocol: as §1, §2, §3, §4, §5, §6

A673 = test: CellTiter-Glo cell viability, A673 (human rhabdomyoma cell); format: cell-based; details: Homo sapiens, A673, 72 h, read-out: IC50 calculated based on the concentration of dihydroxyacetone
Protocol: as §1, §2, §3, §4, §5, §6

PANC-1 = test: CellTiter-Glo cell viability, PANC-1 (human pancreatic cancer cell line); format: cell-based; details: Homo sapiens, PANC-1, 72 h, read-out: IC50 calculated based on the concentration of dihydroxyacetone
Protocol: as §1, §2, §3, §4, §5, §6

HCCLM3 = test: CellTiter-Glo cell viability, HCCLM3 (human high metastatic hepatoma cell); format: cell-based; details: Homo sapiens, HCCLM3, 72 h, read-out: IC50 calculated based on the concentration of dihydroxyacetone
Protocol: as §1, §2, §3, §4, §5, §6

DU145 = test: CellTiter-Glo cell viability, DU145 (human prostate cancer cell); format: cell-based; details: Homo sapiens, DU-145, 72 h, read-out: IC50 calculated based on the concentration of dihydroxyacetone
Protocol: as §1, §2, §3, §4, §5, §6

U87MG = test: CellTiter-Glo cell viability, U87MG (human spongioblastoma cell line); format: cell-based; details: Homo sapiens, U-87 MG, 72 h, read-out: IC50 calculated based on the concentration of dihydroxyacetone
Protocol: as §1, §2, §3, §4, §5, §6

Calu-6 = test: CellTiter-Glo cell viability, Calu-6 (human degenerative cancer cell); format: cell-based; details: Homo sapiens, Calu-6, 72 h, read-out: IC50 calculated based on the concentration of dihydroxyacetone
Protocol: as §1, §2, §3, §4, §5, §6

SW620 = test: CellTiter-Glo cell viability, SW620 (human colon cancer cell); format: cell-based; details: Homo sapiens, SW-620, 72 h, read-out: IC50 calculated based on the concentration of dihydroxyacetone
Protocol: as §1, §2, §3, §4, §5, §6

Caki-1 = test: CellTiter-Glo cell viability, Caki-1 (human renal clear cell carcinoma skin metastatic cell); format: cell-based; details: Homo sapiens, CAKI-1, 72 h, read-out: IC50 calculated based on the concentration of dihydroxyacetone
Protocol: as §1, §2, §3, §4, §5, §6

HCC1937 = test: CellTiter-Glo cell viability, HCC1937 (human breast cancer cell); format: cell-based; details: Homo sapiens, HCC1937, 72 h, read-out: IC50 calculated based on the concentration of dihydroxyacetone
Protocol: as §1, §2, §3, §4, §5, §6

H460 = test: CellTiter-Glo cell viability, H460 (human large cell lung cancer cell line); format: cell-based; details: Homo sapiens, NCI-H460, 72 h, read-out: IC50 calculated based on the concentration of dihydroxyacetone
Protocol: as §1, §2, §3, §4, §5, §6

HT29 = test: CellTiter-Glo cell viability, HT29 (human colon cancer cell line); format: cell-based; details: Homo sapiens, HT-29, 72 h, read-out: IC50 calculated based on the concentration of dihydroxyacetone
Protocol: as §1, §2, §3, §4, §5, §6

S180 = test: CellTiter-Glo cell viability, S180 (S180 sarcoma cells); format: cell-based; details: S-180, 72 h, read-out: IC50 calculated based on the concentration of dihydroxyacetone
Protocol: as §1, §2, §3, §4, §5, §6

HL-60 = test: CellTiter-Glo cell viability, HL-60 (human leukemic cell line); format: cell-based; details: Homo sapiens, HL-60, 72 h, read-out: IC50 calculated based on the concentration of dihydroxyacetone
Protocol: as §1, §2, §3, §4, §5, §6

[1] = system: human large cell lung cancer H460 cell transplantation tumor; test: H460 cell transplantation tumor model in naked mice; format: in vivo, Balb/c-nude naked mice
Protocol: Naked mice were subcutaneously inoculated with H460 cells (human large cell lung cancer cell line). When tumors grew to about 100 mm^3, 36 naked mice with similar tumor volume and good shape were selected from 70 naked mice, divided into 6 groups with 6 animals in each group;
Cisplatin: 4 mg/kg, volume of injection was 0.1 mL/10 g, i.p, administration once every 5 days, three weeks in total;
Cisplatin group: 4 mg/kg, volume of injection was 0.1 mL/10 g, i.p, administration once every 5 days, three weeks in total;
Blank group: 0.9% sodium chloride injection, mode of administration was same as DHA group.
3.1.3 Naked mice were inoculated subcutaneously at the right side of back, 0.1 mL/mouse, i.e. each naked mouse was inoculated 2×10^6 cells;
3.2.1 When tumors grew to about 100 mm^3, 36 naked mice with similar tumor volume and good shape were selected from 70 naked mice, and divided into 6 groups with 6 animals in each group.
The mixture was refrigerated at 4° C. when not used. […] 4 mL of 0.6 mg/mL cisplatin solution were measured and added with 2.0 mL physiological saline to formulate a 0.4 mg/mL (4 mg/kg) cisplatin solution. The solution was refrigerated at 4° C. when not used.
The tumor volume and body weight were measured three times per week from the first day of administration. Naked mice were sacrificed on 22th day. The tumors were taken out, weighed and photographed. The tumor inhibition rate was calculated.
The calculation formula is: TV=½×a×b^2, where a and b represents length and width, respectively.
The calculation formula is: RTV=TVt/TV1, where TV1 is a tumor volume when being caged and administrated (i.e., d1), TVt is a tumor volume at each measurement.
The calculation formula is: […]
TRTV: RTV of treatment group; CRTV: RTV of blank control group.
TTW: tumor weight of treatment group; CTW: tumor weight of blank control group; TW: tumor weight.

[2] = D20, H460 tumor naked mice, cisplatin 4 mg/kg i.p. once every 5 days, DHA p.o. 0.1 mL/10 g bid

Compound: O=C(CO)CO [Dihydroxyacetone, 1,3-dihydroxyacetone]
- IC50 (SH-SY5Y): 1.81 mM
- IC50 (WIL2-S): 12.1 mM
- IC50 (BEL-7402): 6.82 mM
- IC50 (RPMI8226): 1.81 mM
- IC50 (T24): 7.67 mM
- IC50 (A549): 4.39 mM
- IC50 (TT): 3.62 mM
- IC50 (A375): 6.18 mM
- IC50 (A673): 3.77 mM
- IC50 (PANC-1): 7.36 mM
- IC50 (HCCLM3): 5.48 mM
- IC50 (DU145): 7.68 mM
- IC50 (U87MG): 9.21 mM
- IC50 (Calu-6): 11 mM
- IC50 (SW620): 8.54 mM
- IC50 (Caki-1): 10 mM
- IC50 (HCC1937): 10.2 mM
- IC50 (H460): 3.79 mM
- IC50 (HT29): 4.37 mM
- IC50 (S180): 0.95 mM
- IC50 (HL-60): 2.78 mM
- TV (mm^3) D1 ([1]; D1 (first day of administration), H460 tumor naked mice): 90.47 ± 9.91 mm^3
- Body weight (g) D1 ([1]; D1 (first day of administration), H460 tumor naked mice, cisplatin 4 mg/kg i.p. once every 5 days, DHA p.o. 0.1 mL/10 g bid): 21.4 ± 0.7 g
- Body weight (g) D20 [1, 2]: 23.7 ± 1.3 g
- TV (mm^3) D20 [1, 2]: 2300.4 ± 585.1 mm^3
- RTV D20 (relative tumor volume) ([1]; D20, RTV=TVt/TV1, cisplatin 4 mg/kg i.p. once every 5 days, DHA p.o. 0.1 mL/10 g bid): 25.5 ± 6.2
- Effect of tumor inhibition ([1]; H460 tumor naked mice, vs blank): did not exhibit a significant effect of tumor inhibition
- T/C (%) relative tumor proliferation rate ([1]; final, vs blank control group RTV, cisplatin 4 mg/kg i.p. once every 5 days, DHA p.o. 0.1 mL/10 g bid): 142.0%
- Toxic reaction ([1]; mouse, in vivo): no toxic reaction
- Tumor Weight TW ([1]; tumors taken out at sacrifice on 22th day, cisplatin 4 mg/kg i.p. once every 5 days, DHA p.o. 0.1 mL/10 g bid): 1.76 ± 0.44 g
- Tumor Weight Inhibition Rate IR (%) ([1]; vs blank control group tumor weight, cisplatin 4 mg/kg i.p. once every 5 days, DHA p.o. 0.1 mL/10 g bid): −50.6%
